“And” between values parts separate entries of the source, which are not always exact repeats. Equal values may be shown once.
Experiments:
Assay type in all cases: in vivo, chicken chicks
[1] = tested on: Eimeria acervulina, Eimeria maxima and Eimeria tenella; test: Cage experiments coccidiosis/chicks, mixed experimental infection
Protocol: (§1) The efficacy of the compounds according to the invention can be confirmed, for example, in cage experiments using the following experimental arrangement, in which the animals are treated with the respective individual components and with the mixtures of the individual components.
(§2) An active compound-containing feed is prepared in such a way that the required amount of active compound is thoroughly mixed with a nutritionally balanced animal feed, e.g. with the chick feed indicated below.
(§3) 8 to 12 day-old male chicken chicks raised under coccidea-free conditions (e.g. LSL Brinkschulte/Senden) receive the compounds according to the invention (test substances) from 3 days before (day -3) the infection (=a.i.) until 8 (9) days after the infection (=p.i.) with the feed in the concentration indicated in ppm. Three animals are kept in each cage. Per dose, one to a number of groups of this type are employed. Infection is carried out by means of a stomach tube directly into the crop using approximately 100,000 sporulated oocysts of Eimeria acervulina and with in each case approximately 30,000 oocysts of E. maxima and 40,000 sporulated oocysts of E. tenella. These are highly virulent strains. The exact infectious dose is adjusted such that if possible one of three experimentally infected untreated chicks dies due to infection. For the assessment of the efficacy, the following criteria are taken into consideration: weight increase from the start of the experiment to the end of the experiment, death rate due to infection, macroscopic assessment of the faeces with respect to diarrhoea and excretion of blood on days 5 and 7 p.i. (grade 0 to 6), macroscopic grade of the intestinal mucous membrane, in particular of the cecums (grade 0 to 6) and the oocyst excretion and also the proportion (in %) of the oocysts sporulating within 24 hours. The number of oocysts in the faeces was determined with the aid of the McMaster counting chamber (see Engelbrecht and coworkers “Parasitologische Arbeitsmethoden in Medizin und Veterinärmedizin, [Parasitological working methods in medicine and veterinary medicine] Akademie-Verlag, Berlin (1965)). The individual findings are related to the untreated noninfected control groups and an overall grade is calculated (cf. A. Haberkorn (1986), pp. 263 to 270 in Research in Avian Coccidiosis ed L. R. McDougald, L. P. Joyner, P. L. Long Proceedings of the Georgia Coccidiosis Conference Nov, 18-20, 1985 Athens/Ga. USA).
In the column “ppm”, the concentration of the active compound employed in the feed is indicated in ppm.
In the column “mortality”, the percentage of the animals which have died is indicated under % and the number of the animals which have died/animals employed in the experiment is indicated under n.
In the column “weight % of not inf. control”, the ratio of the weight of the treated animals to the weight of the noninfected control group is indicated.
(§4) In the columns “dropping scores”, “lesion score” and “oocyst control”, individual details of the action are given.
In the column “% efficacy”, the overall rating is assessed; 0% means no action, 100% means complete action.

[2] = tested on: Eimeria tenella; test: Cage experiments coccidiosis/chicks, Eimeria tenella part of the mixed infection; settings: for Efficacy against Eimeria tenella (grade): third symbol of cell; on Efficacy against Eimeria tenella (grade): key: 2 = complete action; 1 = weak action; 0 = inactive; D = death
Protocol: as §1, §2, §3, §4

[3] = tested on: Eimeria acervulina; test: Cage experiments coccidiosis/chicks, Eimeria acervulina part of the mixed infection; settings: for Efficacy against Eimeria acervulina (grade): first symbol of cell; on Efficacy against Eimeria acervulina (grade): key: 2 = complete action; 1 = weak action; 0 = inactive; D = death
Protocol: as §1, §2, §3, §4

[4] = tested on: Eimeria maxima; test: Cage experiments coccidiosis/chicks, Eimeria maxima part of the mixed infection; settings: for Efficacy against Eimeria maxima (grade): second symbol of cell; on Efficacy against Eimeria maxima (grade): key: 2 = complete action; 1 = weak action; 0 = inactive; D = death
Protocol: as §1, §2, §3, §4

[5] = 0 ppm in feed (so in the source)
[6] = 0 ppm in feed (so in the source), grade 0 to 6

## Cc1oc(=O)oc1Cn1c(C(F)(F)F)nc2c(Cl)cc(C(F)(F)F)cc21 [Example 11]
[1]; [5]
  % efficacy tot.: 39%
  mortality %: 0%
  mortality n (died/employed): 0/3
  oocyst in % of inf. control tot.: 34%
  weight % of not inf. control: 52%
[1]; [6]
  dropping scores: 6
  lesion score: 6
[1]; 5 ppm
  % efficay tot.: 11%
  dropping scores: 6
  lesion score: 6
  mortality %: 33%
  mortality n: 1/3
  oocyst in % of inf. control tot.: 47 % of inf. control
  weight % of not inf. control: 42 % of not inf. control
[1]; 5 ppm in feed
  % efficacy tot.: 0%
  mortality %: 66%
  mortality n (died/employed): 2/3
  oocyst in % of inf. control tot.: >100%
  weight % of not inf. control: 17%
[1]; 5 ppm in feed, grade 0 to 6
  dropping scores: 6
  lesion score: 6
[1]; 7.5 ppm
  % efficay tot.: 7%
  dropping scores: 6
  lesion score: 6
  mortality %: 0%
  mortality n: 0/3
  oocyst in % of inf. control tot.: 75 % of inf. control
  weight % of not inf. control: 58 % of not inf. control
[1]; 10 ppm
  % efficay tot.: 22%
  dropping scores: 6
  lesion score: 6
  mortality %: 33%
  mortality n: 1/3
  oocyst in % of inf. control tot.: 72 % of inf. control
  weight % of not inf. control: 41 % of not inf. control
[1]; 25 ppm in feed
  % efficacy tot.: 79%
  mortality %: 0%
  mortality n (died/employed): 0/3
  oocyst in % of inf. control tot.: 0%
  weight % of not inf. control: 67%
[1]; 25 ppm in feed, grade 0 to 6
  dropping scores: 2
  lesion score: 0
[2]; [5]
  oocyst in % of inf. control ten.: 27%
[2]; 5 ppm
  oocyst in % of inf. control ten.: 91 % of inf. control
[2]; 5 ppm in feed
  oocyst in % of inf. control ten.: >100%
[2]; 7.5 ppm
  oocyst in % of inf. control ten.: >100 % of inf. control
[2]; 10 ppm
  oocyst in % of inf. control ten.: 44 % of inf. control
[2]; 25 ppm in feed
  oocyst in % of inf. control ten.: 0%
[2]; Dose 5 ppm
  Efficacy against Eimeria tenella (grade): 0
[2]; Dose 10 ppm
  Efficacy against Eimeria tenella (grade): 1
[2]; Dose 25 ppm
  Efficacy against Eimeria tenella (grade): 2
[3]; [5]
  oocyst in % of inf. control ac.: 38%
[3]; 5 ppm
  oocyst in % of inf. control ac.: 19 % of inf. control
[3]; 5 ppm in feed
  oocyst in % of inf. control ac.: >100%
[3]; 7.5 ppm
  oocyst in % of inf. control ac.: 22 % of inf. control
[3]; 10 ppm
  oocyst in % of inf. control ac.: 91 % of inf. control
[3]; 25 ppm in feed
  oocyst in % of inf. control ac.: 0%
[3]; Dose 5 ppm
  Efficacy against Eimeria acervulina (grade): 0
[3]; Dose 10 ppm
  Efficacy against Eimeria acervulina (grade): 1
[3]; Dose 25 ppm
  Efficacy against Eimeria acervulina (grade): 2
[4]; [5]
  oocyst in % of inf. control max.: 0%
[4]; 5 ppm
  oocyst in % of inf. control max.: >100 % of inf. control
[4]; 5 ppm in feed
  oocyst in % of inf. control max.: 0%
[4]; 7.5 ppm
  oocyst in % of inf. control max.: >100 % of inf. control
[4]; 10 ppm
  oocyst in % of inf. control max.: 0 % of inf. control
[4]; 25 ppm in feed
  oocyst in % of inf. control max.: 0%
[4]; Dose 5 ppm
  Efficacy against Eimeria maxima (grade): 0
[4]; Dose 10 ppm
  Efficacy against Eimeria maxima (grade): 1
[4]; Dose 25 ppm
  Efficacy against Eimeria maxima (grade): 2

## Cc1oc(=O)oc1Cn1c(C(F)(F)F)nc2c(Br)cc3c(c21)OC(F)(F)C(F)(F)O3 [Example 14]
[1]; 2.5 ppm in feed
  % efficacy tot.: 30%
  mortality %: 0%
  mortality n (died/employed): 0/3
  oocyst in % of inf. control tot.: 35%
  weight % of not inf. control: 44%
[1]; 2.5 ppm in feed, grade 0 to 6
  dropping scores: 6
  lesion score: 6
[1]; 5 ppm
  % efficay tot.: 0%
  dropping scores: 6
  lesion score: 6
  mortality %: 33%
  mortality n: 1/3
  oocyst in % of inf. control tot.: 67 % of inf. control
  weight % of not inf. control: 29 % of not inf. control
[1]; 5 ppm in feed
  % efficacy tot.: 66%
  mortality %: 33%
  mortality n (died/employed): 1/3
  oocyst in % of inf. control tot.: 2%
  weight % of not inf. control: 90.6%
[1]; 5 ppm in feed, grade 0 to 6
  dropping scores: 6
  lesion score: 5.5
[1]; 7.5 ppm
  % efficay tot.: 45%
  dropping scores: 6
  lesion score: 6
  mortality %: 0%
  mortality n: 0/3
  oocyst in % of inf. control tot.: 15 % of inf. control
  weight % of not inf. control: 61 % of not inf. control
[1]; 10 ppm
  % efficay tot.: 45%
  dropping scores: 3
  lesion score: 6
  mortality %: 0%
  mortality n: 0/3
  oocyst in % of inf. control tot.: 16 % of inf. control
  weight % of not inf. control: 79 % of not inf. control
[1]; 10 ppm in feed
  % efficacy tot.: 69%
  mortality %: 0%
  mortality n (died/employed): 0/3
  oocyst in % of inf. control tot.: 4%
  weight % of not inf. control: 81%
[1]; 10 ppm in feed, grade 0 to 6
  dropping scores: 4
  lesion score: 6
[2]; 2.5 ppm in feed
  oocyst in % of inf. control ten.: 12%
[2]; 5 ppm
  oocyst in % of inf. control ten.: 44 % of inf. control
[2]; 5 ppm in feed
  oocyst in % of inf. control ten.: 1%
[2]; 7.5 ppm
  oocyst in % of inf. control ten.: 15 % of inf. control
[2]; 10 ppm
  oocyst in % of inf. control ten.: 26 % of inf. control
[2]; 10 ppm in feed
  oocyst in % of inf. control ten.: 7%
[2]; Dose 5 ppm
  Efficacy against Eimeria tenella (grade): 1
[2]; Dose 10 ppm
  Efficacy against Eimeria tenella (grade): 1
[3]; 2.5 ppm in feed
  oocyst in % of inf. control ac.: 92%
[3]; 5 ppm
  oocyst in % of inf. control ac.: 80 % of inf. control
[3]; 5 ppm in feed
  oocyst in % of inf. control ac.: 3%
[3]; 7.5 ppm
  oocyst in % of inf. control ac.: 16 % of inf. control
[3]; 10 ppm
  oocyst in % of inf. control ac.: 2 % of inf. control
[3]; 10 ppm in feed
  oocyst in % of inf. control ac.: 1%
[3]; Dose 5 ppm
  Efficacy against Eimeria acervulina (grade): 2
[3]; Dose 10 ppm
  Efficacy against Eimeria acervulina (grade): 2
[4]; 2.5 ppm in feed
  oocyst in % of inf. control max.: 0%
[4]; 5 ppm
  oocyst in % of inf. control max.: 57 % of inf. control
[4]; 5 ppm in feed
  oocyst in % of inf. control max.: 6%
[4]; 7.5 ppm
  oocyst in % of inf. control max.: 1 % of inf. control
[4]; 10 ppm
  oocyst in % of inf. control max.: >100 % of inf. control
[4]; 10 ppm in feed
  oocyst in % of inf. control max.: 0%
[4]; Dose 5 ppm
  Efficacy against Eimeria maxima (grade): 2
[4]; Dose 10 ppm
  Efficacy against Eimeria maxima (grade): 2

## CO[C@@H]1[C@@H](OC)[C@H](C)[C@@](O)(CC(=O)O)O[C@H]1[C@H](C)[C@H]1O[C@@]2(CC[C@@](C)([C@H]3CC[C@@](C)([C@@H]4O[C@@H]([C@H]5O[C@](C)(O)[C@H](C)C[C@@H]5C)C[C@@H]4O[C@@H]4C[C@H](OC)[C@@H](OC)[C@H](C)O4)O3)O2)C[C@H](O)[C@H]1C [MAD, Maduramicin, reference compound]
[1]; 1 ppm in feed
  % efficacy tot.: 38%
  mortality %: 0%
  mortality n (died/employed): 0/3
  weight % of not inf. control: 77% and 56%
[1]; 1 ppm in feed, grade 0 to 6
  lesion score: 5 and 6
[1]; 2 ppm in feed
  % efficacy tot.: 55% and 32%
  mortality %: 0%
  mortality n (died/employed): 0/3
  weight % of not inf. control: 74% and 60%
[1]; 2 ppm in feed, grade 0 to 6
  lesion score: 3 and 6
[1]; 3 ppm in feed
  % efficacy tot.: 61% and 93%
  mortality n (died/employed): 0/3 and 1/3
  weight % of not inf. control: 76% and 92%
[1]; 3 ppm in feed, grade 0 to 6
  dropping scores: 0
  lesion score: 1
[1]; MAD 1 ppm
  % efficay tot.: 7%
  dropping scores: 6
  lesion score: 6
  mortality %: 0%
  mortality n: 0/3
  oocyst in % of inf. control tot.: 29 % of inf. control
  weight % of not inf. control: 59 % of not inf. control
[1]; MAD 2 ppm
  % efficay tot.: 17%
  dropping scores: 6
  lesion score: 5
  mortality %: 0%
  mortality n: 0/3
  oocyst in % of inf. control tot.: 48 % of inf. control
  weight % of not inf. control: 63 % of not inf. control
[1]; MAD 3 ppm
  % efficay tot.: 60%
  dropping scores: 6
  lesion score: 2.7
  mortality %: 33%
  mortality n: 0/3
  oocyst in % of inf. control tot.: 9 % of inf. control
  weight % of not inf. control: 90 % of not inf. control
[2]; MAD 1 ppm
  oocyst in % of inf. control ten.: 56 % of inf. control
[2]; MAD 2 ppm
  oocyst in % of inf. control ten.: 82 % of inf. control
[2]; MAD 3 ppm
  oocyst in % of inf. control ten.: 6 % of inf. control
[3]; 1 ppm in feed
  oocyst in % of inf. control ac.: 60% and >100%
[3]; MAD 1 ppm
  oocyst in % of inf. control ac.: 39 % of inf. control
[3]; MAD 2 ppm
  oocyst in % of inf. control ac.: 27 % of inf. control
[3]; MAD 3 ppm
  oocyst in % of inf. control ac.: 11 % of inf. control
[4]; 3 ppm in feed
  oocyst in % of inf. control max.: 0%
[4]; MAD 1 ppm
  oocyst in % of inf. control max.: 86 % of inf. control
[4]; MAD 2 ppm
  oocyst in % of inf. control max.: >100 % of inf. control
[4]; MAD 3 ppm
  oocyst in % of inf. control max.: 14 % of inf. control
